# Test results from the supplement of paper PMC10307832.
# Columns and labels:
# Experiment in all cases: relative viability (nuclei count vs DMSO), 5 days (fraction); higher = more cells survive
# NCI-H1395 = system: NCI-H1395
# Procedure, shortened: (§1)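 Lung cancer cell lines, seeded in 1536-well plates, were treated the following day by pin tool with a single drug or with five library-drug doses (not always all listed) in √10 steps on top of a fixed anchor-drug dose. Cells were fixed and nuclei stained in one step after 5 days, and nuclei were counted. Relative viability is the nuclei count for treated wells divided by that for vehicle wells, reported as medians of duplicate plates.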
# NCI-H2009 = system: NCI-H2009
# Procedure, shortened: as §1
# EMC-BAC-2 = system: EMC-BAC-2
# Procedure, shortened: as §1
# NCI-H1975 = system: NCI-H1975
# Procedure, shortened: as §1
# NCI-H460 = system: NCI-H460
# Procedure, shortened: as §1
# COR-L 105 = system: COR-L 105
# Procedure, shortened: as §1
# HCC-827 = system: HCC-827
# Procedure, shortened: as §1
# SK-LU-1 = system: SK-LU-1
# Procedure, shortened: as §1
# NCI-H2228 = system: NCI-H2228
# Procedure, shortened: as §1
# LCLC-103H = system: LCLC-103H
# Procedure, shortened: as §1
# NCI-H1792 = system: NCI-H1792
# Procedure, shortened: as §1
# NCI-H1755 = system: NCI-H1755
# Procedure, shortened: as §1
# A-427 = system: A-427
# Procedure, shortened: as §1
# NCI-H23 = system: NCI-H23
# Procedure, shortened: as §1
# SW 1573 = system: SW 1573
# Procedure, shortened: as §1
# CAL-12T = system: CAL-12T
# Procedure, shortened: as §1
# NCI-H1437 = system: NCI-H1437
# Procedure, shortened: as §1
# NCI-H1355 = system: NCI-H1355
# Procedure, shortened: as §1
# HARA = system: HARA
# Procedure, shortened: as §1
# NCI-H1915 = system: NCI-H1915
# Procedure, shortened: as §1
# HCC-366 = system: HCC-366
# Procedure, shortened: as §1
# HOP-62 = system: HOP-62
# Procedure, shortened: as §1
# NCI-H727 = system: NCI-H727
# Procedure, shortened: as §1
structure (smiles),measurement,setting,value
COc1cc(N2CCC(C(N)=O)CC2)ccc1Nc1nc(N)c(Cl)c(Nc2ccccc2S(=O)(=O)C(C)C)n1 [HG-5-88-01] + C[C@]1(O)C[C@@H](c2nc(-c3ccc4ccc(-c5ccccc5)nc4c3)c3c(N)nccn32)C1 [Linsitinib] (partner 1 µM),relative viability,NCI-H1395; first compound 0.04 µM,1.13
same,relative viability,NCI-H1395; first compound 0.1265 µM,1.02
same,relative viability,NCI-H1395; first compound 0.4 µM,1.07
same,relative viability,NCI-H1395; first compound 1.265 µM,0.856
same,relative viability,NCI-H1395; first compound 4 µM,1.09
same,relative viability,NCI-H2009; first compound 0.04 µM,1.23
same,relative viability,NCI-H2009; first compound 0.1265 µM,1.14
same,relative viability,NCI-H2009; first compound 0.4 µM,1.23
same,relative viability,NCI-H2009; first compound 1.265 µM,1.12
same,relative viability,NCI-H2009; first compound 4 µM,1.17
same,relative viability,EMC-BAC-2; first compound 0.04 µM,0.79
same,relative viability,EMC-BAC-2; first compound 0.1265 µM,0.849
same,relative viability,EMC-BAC-2; first compound 0.4 µM,0.771
same,relative viability,EMC-BAC-2; first compound 1.265 µM,0.758
same,relative viability,EMC-BAC-2; first compound 4 µM,0.851
same,relative viability,NCI-H1975; first compound 0.04 µM,0.995
same,relative viability,NCI-H1975; first compound 0.1265 µM,1
same,relative viability,NCI-H1975; first compound 0.4 µM,0.682
same,relative viability,NCI-H1975; first compound 1.265 µM,0.859
same,relative viability,NCI-H1975; first compound 4 µM,0.497
same,relative viability,NCI-H460; first compound 0.04 µM,0.73
same,relative viability,NCI-H460; first compound 0.1265 µM,0.81
same,relative viability,NCI-H460; first compound 0.4 µM,0.784
same,relative viability,NCI-H460; first compound 1.265 µM,0.81
same,relative viability,NCI-H460; first compound 4 µM,1.41
same,relative viability,COR-L 105; first compound 0.04 µM,0.921
same,relative viability,COR-L 105; first compound 0.1265 µM,0.966
same,relative viability,COR-L 105; first compound 0.4 µM,1.04
same,relative viability,COR-L 105; first compound 1.265 µM,0.961
same,relative viability,COR-L 105; first compound 4 µM,0.751
same,relative viability,HCC-827; first compound 0.04 µM,0.953
same,relative viability,HCC-827; first compound 0.1265 µM,1.04
same,relative viability,HCC-827; first compound 0.4 µM,0.934
same,relative viability,HCC-827; first compound 1.265 µM,0.955
same,relative viability,HCC-827; first compound 4 µM,0.69
same,relative viability,SK-LU-1; first compound 0.04 µM,1.02
same,relative viability,SK-LU-1; first compound 0.1265 µM,1
same,relative viability,SK-LU-1; first compound 0.4 µM,1.09
same,relative viability,SK-LU-1; first compound 1.265 µM,1.21
same,relative viability,SK-LU-1; first compound 4 µM,0.996
same,relative viability,NCI-H2228; first compound 0.04 µM,0.234
same,relative viability,NCI-H2228; first compound 0.1265 µM,0.382
same,relative viability,NCI-H2228; first compound 0.4 µM,0.389
same,relative viability,NCI-H2228; first compound 1.265 µM,0.41
same,relative viability,NCI-H2228; first compound 4 µM,0.315
same,relative viability,LCLC-103H; first compound 0.04 µM,0.986
same,relative viability,LCLC-103H; first compound 0.1265 µM,1.18
same,relative viability,LCLC-103H; first compound 0.4 µM,1.03
same,relative viability,LCLC-103H; first compound 1.265 µM,1.03
same,relative viability,LCLC-103H; first compound 4 µM,1.21
same,relative viability,NCI-H1792; first compound 0.04 µM,0.711
same,relative viability,NCI-H1792; first compound 0.1265 µM,0.513
same,relative viability,NCI-H1792; first compound 0.4 µM,0.515
same,relative viability,NCI-H1792; first compound 1.265 µM,0.561
same,relative viability,NCI-H1792; first compound 4 µM,0.818
same,relative viability,NCI-H1755; first compound 0.1265 µM,0.902
same,relative viability,NCI-H1755; first compound 0.4 µM,1.01
same,relative viability,NCI-H1755; first compound 1.265 µM,0.983
same,relative viability,NCI-H1755; first compound 4 µM,1.09
same,relative viability,A-427; first compound 0.04 µM,1.07
same,relative viability,A-427; first compound 0.1265 µM,1.11
same,relative viability,A-427; first compound 0.4 µM,1.15
same,relative viability,A-427; first compound 1.265 µM,1.14
same,relative viability,A-427; first compound 4 µM,1.09
same,relative viability,NCI-H23; first compound 0.04 µM,0.628
same,relative viability,NCI-H23; first compound 0.1265 µM,0.621
same,relative viability,NCI-H23; first compound 0.4 µM,0.652
same,relative viability,NCI-H23; first compound 1.265 µM,0.73
same,relative viability,NCI-H23; first compound 4 µM,0.61
same,relative viability,SW 1573; first compound 0.04 µM,0.796
same,relative viability,SW 1573; first compound 0.1265 µM,0.961
same,relative viability,SW 1573; first compound 0.4 µM,0.855
same,relative viability,SW 1573; first compound 1.265 µM,0.704
same,relative viability,SW 1573; first compound 4 µM,0.83
same,relative viability,CAL-12T; first compound 0.04 µM,0.773
same,relative viability,CAL-12T; first compound 0.1265 µM,0.592
same,relative viability,CAL-12T; first compound 0.4 µM,0.78
same,relative viability,CAL-12T; first compound 1.265 µM,0.561
same,relative viability,CAL-12T; first compound 4 µM,0.726
same,relative viability,NCI-H1437; first compound 0.04 µM,1.04
same,relative viability,NCI-H1437; first compound 0.1265 µM,1.04
same,relative viability,NCI-H1437; first compound 0.4 µM,0.926
same,relative viability,NCI-H1437; first compound 1.265 µM,0.996
same,relative viability,NCI-H1437; first compound 4 µM,1.18
same,relative viability,NCI-H1355; first compound 0.04 µM,0.863
same,relative viability,NCI-H1355; first compound 0.1265 µM,0.85
same,relative viability,NCI-H1355; first compound 0.4 µM,0.864
same,relative viability,NCI-H1355; first compound 1.265 µM,0.705
same,relative viability,NCI-H1355; first compound 4 µM,0.767
same,relative viability,HARA; first compound 0.04 µM,0.946
same,relative viability,HARA; first compound 0.1265 µM,0.916
same,relative viability,HARA; first compound 0.4 µM,0.909
same,relative viability,HARA; first compound 1.265 µM,1
same,relative viability,HARA; first compound 4 µM,0.92
same,relative viability,NCI-H1915; first compound 0.04 µM,1.09
same,relative viability,NCI-H1915; first compound 0.1265 µM,1.11
same,relative viability,NCI-H1915; first compound 0.4 µM,1.14
same,relative viability,NCI-H1915; first compound 1.265 µM,1.15
same,relative viability,NCI-H1915; first compound 4 µM,0.674
same,relative viability,HCC-366; first compound 0.04 µM,0.573
same,relative viability,HCC-366; first compound 0.1265 µM,0.558
same,relative viability,HCC-366; first compound 0.4 µM,0.492
same,relative viability,HCC-366; first compound 1.265 µM,0.608
same,relative viability,HCC-366; first compound 4 µM,0.912
same,relative viability,HOP-62; first compound 0.04 µM,0.978
same,relative viability,HOP-62; first compound 0.1265 µM,1.04
same,relative viability,HOP-62; first compound 0.4 µM,0.821
same,relative viability,HOP-62; first compound 1.265 µM,0.938
same,relative viability,HOP-62; first compound 4 µM,1.23
same,relative viability,NCI-H727; first compound 0.04 µM,0.337
same,relative viability,NCI-H727; first compound 0.1265 µM,0.336
same,relative viability,NCI-H727; first compound 0.4 µM,0.179
same,relative viability,NCI-H727; first compound 1.265 µM,0.221
same,relative viability,NCI-H727; first compound 4 µM,0.324
